Consider 7 compounds from patent US20140235643A1, “NOVEL QUINOXALINE INHIBITORS OF PI3K” (GILEAD CALISTOGA LLC, priority 2011, published 2014).

One assay deals with T1, PI3Kγ (Mus musculus, UniProt Q9JHG7).
T1 construct: endogenous in cells; host or cells: RAW-264 macrophage cells (ATCC)
Put plainly: PI3Kγ-dependent cell-based assay: C5a-mediated AKT phosphorylation in RAW-264 cells. Set-up: species or system murine. The settings on record: C5a-induced AKT phosphorylation, RAW-264 macrophages. Here is the method:
PDGF-BB-induced AKT phosphorylation in Swiss-3T3 fibroblasts is mediated by p110α. C5a-induced AKT phosphorylation in RAW-264 murine macrophages is mediated exclusively by p110γ.
PI3Kγ-Dependent Cell-Based Assay: C5a-Mediated AKT Phosphorylation in RAW-264 Cells
RAW-264 macrophage cells (American Type Culture Collection) were cultured with Dulbecco's modified Eagle medium (DMEM) containing 10% fetal bovine serum and the antibiotics penicillin and streptomycin. Cells were seeded on a 96-well Tissue Culture Plate at 100,000 to 200,000 cells/well the day before the experiment. Next day, cells were starved for 2 hr in 0.1% FBS containing medium. The cells were pretreated with inhibitors or DMSO for 2 hr and stimulated for 5 min with 75 ng/ml C5a (R&D) at 37° C. in 5% CO2. The culture medium was removed and cells were fixed for 20 min at room temperature by addition of 100 μl of 4% cell fixing buffer to each well. AKT phosphorylation and total AKT was detected by ELISA.
Detection of Phospho-Ser-473 AKT and Total AKT by ELISA
The fixed cells were washed twice with 150 μl of wash buffer (WB) and quenched by incubating with 100 μl of Quenching Buffer for 20 min at room temperature. Cells were washed once with 150 μl WB and blocked by incubating with 100 μl of Blocking Buffer for 1 hr at room temperature. Cells were incubated with 50 μl of primary antibody diluted in Blocking Buffer, either phospho-Ser-473 AKT specific (1:150 dilution) or total-AKT antibody (1:200 dilution), to each specific well. The negative control wells contained 50 μl of Blocking Buffer. Plates were sealed with plate sealing film and incubated overnight at 4° C. Cells were washed twice with 150 μl WB followed by addition of 50 μl per well of DELFIA secondary antibody (50 ng/well, diluted in DELFIA Assay Buffer). After 2 hr incubation at room temperature, cells were washed 4 times with 150 μl of Europium Wash Solution followed by addition of 100 μl of DELFIA Enhancing Solution to each well. Plates were incubated for 5 min in the dark and fluorescent signal was read using SpectraMax M5™ (Molecular Devices). Total AKT level was determined to verify equal cell number per well. The average background fluorescence values from wells that received vehicle control in the absence of PDGF-BB or C5a were subtracted from all the values of experimental conditions. Fluorescence values corresponding to phosphorylated AKT from wells that received PDGF-BB or C5a were normalized to 100% and compound effect was plotted as % change relative to the vehicle control.

The target of the next assay is T2, PI3Kβ (p110β/p85α) (Homo sapiens, UniProt P42338).
T2 construct: purchased Invitrogen
T2 sequence (P42338 whole entry): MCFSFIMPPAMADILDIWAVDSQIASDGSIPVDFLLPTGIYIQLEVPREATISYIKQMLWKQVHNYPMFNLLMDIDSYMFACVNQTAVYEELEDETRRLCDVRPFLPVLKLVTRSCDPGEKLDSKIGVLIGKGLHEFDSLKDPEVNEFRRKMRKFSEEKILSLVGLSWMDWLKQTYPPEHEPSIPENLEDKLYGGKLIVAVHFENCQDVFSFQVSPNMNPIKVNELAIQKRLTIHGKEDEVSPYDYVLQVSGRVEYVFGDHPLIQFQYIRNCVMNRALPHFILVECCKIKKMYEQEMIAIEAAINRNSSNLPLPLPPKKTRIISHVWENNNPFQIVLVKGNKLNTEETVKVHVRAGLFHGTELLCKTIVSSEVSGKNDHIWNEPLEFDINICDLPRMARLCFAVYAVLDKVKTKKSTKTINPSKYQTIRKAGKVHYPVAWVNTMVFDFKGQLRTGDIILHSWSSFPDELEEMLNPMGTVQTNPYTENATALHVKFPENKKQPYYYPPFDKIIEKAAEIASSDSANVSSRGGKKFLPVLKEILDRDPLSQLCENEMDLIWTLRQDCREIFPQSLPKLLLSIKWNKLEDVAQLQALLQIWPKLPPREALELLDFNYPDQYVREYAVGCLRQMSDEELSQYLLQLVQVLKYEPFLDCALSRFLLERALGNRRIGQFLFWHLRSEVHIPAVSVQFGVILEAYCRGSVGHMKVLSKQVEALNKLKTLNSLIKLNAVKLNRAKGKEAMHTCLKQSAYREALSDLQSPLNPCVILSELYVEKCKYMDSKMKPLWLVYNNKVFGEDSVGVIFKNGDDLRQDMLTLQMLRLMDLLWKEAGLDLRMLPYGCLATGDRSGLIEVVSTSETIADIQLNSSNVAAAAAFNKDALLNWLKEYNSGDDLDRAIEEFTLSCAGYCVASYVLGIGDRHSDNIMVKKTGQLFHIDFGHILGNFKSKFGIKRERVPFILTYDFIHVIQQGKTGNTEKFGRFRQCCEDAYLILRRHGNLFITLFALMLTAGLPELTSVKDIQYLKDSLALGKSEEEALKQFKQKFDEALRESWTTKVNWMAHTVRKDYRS
T2 sequence (P27986 whole entry partner): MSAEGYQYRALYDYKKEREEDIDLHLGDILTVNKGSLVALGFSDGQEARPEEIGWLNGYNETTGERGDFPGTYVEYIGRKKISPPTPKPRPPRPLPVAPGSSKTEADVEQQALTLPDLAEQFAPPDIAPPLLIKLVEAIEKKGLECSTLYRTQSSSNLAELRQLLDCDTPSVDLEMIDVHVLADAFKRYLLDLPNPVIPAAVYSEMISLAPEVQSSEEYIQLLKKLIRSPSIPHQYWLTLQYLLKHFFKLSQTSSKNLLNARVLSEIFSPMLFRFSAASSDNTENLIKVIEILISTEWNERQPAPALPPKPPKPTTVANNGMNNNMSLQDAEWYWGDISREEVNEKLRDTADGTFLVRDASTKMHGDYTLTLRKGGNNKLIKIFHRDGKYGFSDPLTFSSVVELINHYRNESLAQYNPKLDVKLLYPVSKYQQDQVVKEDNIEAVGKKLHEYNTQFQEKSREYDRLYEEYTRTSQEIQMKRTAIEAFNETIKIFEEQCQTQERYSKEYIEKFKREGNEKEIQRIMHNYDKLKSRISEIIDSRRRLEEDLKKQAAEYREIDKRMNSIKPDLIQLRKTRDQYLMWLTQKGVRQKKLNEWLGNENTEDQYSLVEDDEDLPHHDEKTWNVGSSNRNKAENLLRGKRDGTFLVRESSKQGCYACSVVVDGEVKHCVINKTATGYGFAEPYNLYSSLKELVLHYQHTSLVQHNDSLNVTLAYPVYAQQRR
Description: PI3K biochemical enzyme assay (Adapta universal kinase assay), p110 beta/p85 alpha. The following applies: for IC50: Table 2, PI3k biochemical assays, read-out: p110β/p85α IC50. Here is the method:
(§1) This example describes a method of obtaining in vitro activity data concerning the effect of compounds of on various PI3K isoforms. The effect of compounds on the kinase activity of Class I PI3Ks was measured at Invitrogen by using the Adapta® universal kinase assay. It was a homogenous, fluorescent based immunoassay for the detection of ADP produced by the kinase reaction. This assay can be divided into two phases: a kinase reaction phase, and an ADP detection phase. In the kinase reaction phase, all components required for the kinase reaction were added to the well, and the reaction was allowed to incubate for 60 minutes. After the reaction, a detection solution consisting of a europium labeled anti-ADP antibody, an Alexa Fluor® 647 labeled ADP tracer, and EDTA (to stop the kinase reaction) was added to the assay well. ADP formed by the kinase reaction (in the absence of an inhibitor) displaced the Alexa Fluor® 647 labeled ADP tracer from the antibody, resulting in a decrease in the TR-FRET signal.
(§2) ADP formation was determined by calculating the emission ratio from the assay well. The emission ratio was calculated by dividing the intensity of the tracer (acceptor) emission by the intensity of the Eu (donor) emission at 615 nm as shown in the equation below.
(§3) The Test Compounds were screened in 1% DMSO (final) in the well. All Substrate/Kinase Mixtures were diluted to a 2× working concentration in the appropriate Kinase Buffer as described below for the individual kinase:
The 2× p 110beta/p85 alpha/PIP2:PS mixture was prepared in 50 mM HEPES pH 7.5, 100 mM NaCl, 0.03% CHAPS, 1 mM EGTA, 3 mM mgCl2, and 2 mM DTT. The final 10 μL Kinase Reaction consisted of 35.4 ng p110 beta/p85 alpha and 50 μM PIP2:PS. After the 1 hour Kinase Reaction incubation, 5 μL of Detection Mix was added.
(§4) The Detection mix consisted of EDTA (30 mM), Eu-anti-ADP antibody (30 nM) and ADP tracer. All ATP Solutions were diluted to a 4× working concentration in water and used at the Km apparent concentrations for each individual kinase.

A further assay concerns the target T3, PI3Kδ (p110δ/p85α) (Homo sapiens, UniProt O00329).
T3 construct: purchased Invitrogen
Description: PI3K biochemical enzyme assay (Adapta universal kinase assay), p110 delta/p85 alpha. The settings on record: for inhibition at 0.1 µM / inhibition at 1 µM / inhibition at 10 µM: read-out: PI3Kδ % inhib; for IC50: Table 2, PI3k biochemical assays, read-out: p110δ/p85α IC50. Here is the method: as §1, §2, §3
The 2× p110 delta/p85 alpha/PIP2:PS mixture was prepared in 50 mM HEPES pH 7.5, 100 mM NaCl, 0.03% CHAPS, 3 mM mgCl2, 1 mM EGTA. The final 10 μL Kinase Reaction consisted of 0.35-2.6 ng p110 delta/p85 alpha and 50 μM PIP2:PS in 32.5 mM HEPES pH 7.5, 50 mM NaCl, 0.015% CHAPS, 1.5 mM mgCl2, 0.5 mM EGTA. After the 1 hour Kinase Reaction incubation, […] of Detection Mix was added.
as §4

The next assay addresses T4, PI3Kα (p110α/p85α) (Homo sapiens, UniProt P42336).
T4 construct: purchased Invitrogen
Description: PI3K biochemical enzyme assay (Adapta universal kinase assay), p110 alpha/p85 alpha. The settings on record: for inhibition at 1 µM / inhibition at 10 µM: read-out: PI3Kα % inhib; for IC50: Table 2, PI3k biochemical assays, read-out: p110α/p85α IC50. Here is the method: as §1, §2, §3
The 2× p110 alpha/p85 alpha/PIP2:PS mixture was prepared in 50 mM HEPES pH 7.5, 100 mM NaCl, 0.03% CHAPS, 3 mM mgCl2, 1 mM EGTA. The final 10 μL Kinase Reaction consisted of 0.3-1.5 ng p110 alpha/p85 alpha and 50 μM PIP2:PS in 32.5 mM HEPES pH 7.5, 50 mM NaCl, 0.015% CHAPS, 1.5 mM mgCl2, 0.5 mM EGTA. After the 1 hour Kinase Reaction incubation, 5 μL of Detection Mix was added.
as §4

T1 sequence (Q9JHG7 whole entry): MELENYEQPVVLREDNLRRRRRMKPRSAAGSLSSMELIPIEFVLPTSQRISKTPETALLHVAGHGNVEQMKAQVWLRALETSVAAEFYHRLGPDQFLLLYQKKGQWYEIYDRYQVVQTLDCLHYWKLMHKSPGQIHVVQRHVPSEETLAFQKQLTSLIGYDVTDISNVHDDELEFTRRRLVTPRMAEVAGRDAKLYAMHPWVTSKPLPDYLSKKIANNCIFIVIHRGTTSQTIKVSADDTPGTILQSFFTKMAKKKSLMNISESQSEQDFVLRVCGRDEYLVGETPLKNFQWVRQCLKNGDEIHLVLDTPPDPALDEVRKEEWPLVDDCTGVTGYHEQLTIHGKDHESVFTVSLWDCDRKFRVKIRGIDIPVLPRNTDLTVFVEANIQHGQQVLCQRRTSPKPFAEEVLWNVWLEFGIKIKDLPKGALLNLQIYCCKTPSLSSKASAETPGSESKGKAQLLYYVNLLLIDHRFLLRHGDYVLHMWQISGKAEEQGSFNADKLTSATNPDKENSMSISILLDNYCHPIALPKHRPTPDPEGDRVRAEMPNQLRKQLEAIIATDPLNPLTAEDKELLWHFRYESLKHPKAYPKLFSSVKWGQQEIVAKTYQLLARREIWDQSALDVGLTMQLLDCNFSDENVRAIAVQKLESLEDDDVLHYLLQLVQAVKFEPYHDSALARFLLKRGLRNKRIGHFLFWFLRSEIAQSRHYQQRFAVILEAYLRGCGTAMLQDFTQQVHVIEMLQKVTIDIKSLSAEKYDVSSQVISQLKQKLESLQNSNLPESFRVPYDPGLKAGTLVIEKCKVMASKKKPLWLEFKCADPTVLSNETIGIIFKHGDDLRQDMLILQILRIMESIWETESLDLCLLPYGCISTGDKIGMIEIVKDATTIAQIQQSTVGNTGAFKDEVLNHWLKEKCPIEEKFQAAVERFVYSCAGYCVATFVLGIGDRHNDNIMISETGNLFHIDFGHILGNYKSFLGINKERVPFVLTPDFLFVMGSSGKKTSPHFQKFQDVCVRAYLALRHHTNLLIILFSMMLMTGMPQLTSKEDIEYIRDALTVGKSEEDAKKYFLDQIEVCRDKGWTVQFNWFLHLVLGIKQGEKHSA
T3 sequence (O00329 whole entry): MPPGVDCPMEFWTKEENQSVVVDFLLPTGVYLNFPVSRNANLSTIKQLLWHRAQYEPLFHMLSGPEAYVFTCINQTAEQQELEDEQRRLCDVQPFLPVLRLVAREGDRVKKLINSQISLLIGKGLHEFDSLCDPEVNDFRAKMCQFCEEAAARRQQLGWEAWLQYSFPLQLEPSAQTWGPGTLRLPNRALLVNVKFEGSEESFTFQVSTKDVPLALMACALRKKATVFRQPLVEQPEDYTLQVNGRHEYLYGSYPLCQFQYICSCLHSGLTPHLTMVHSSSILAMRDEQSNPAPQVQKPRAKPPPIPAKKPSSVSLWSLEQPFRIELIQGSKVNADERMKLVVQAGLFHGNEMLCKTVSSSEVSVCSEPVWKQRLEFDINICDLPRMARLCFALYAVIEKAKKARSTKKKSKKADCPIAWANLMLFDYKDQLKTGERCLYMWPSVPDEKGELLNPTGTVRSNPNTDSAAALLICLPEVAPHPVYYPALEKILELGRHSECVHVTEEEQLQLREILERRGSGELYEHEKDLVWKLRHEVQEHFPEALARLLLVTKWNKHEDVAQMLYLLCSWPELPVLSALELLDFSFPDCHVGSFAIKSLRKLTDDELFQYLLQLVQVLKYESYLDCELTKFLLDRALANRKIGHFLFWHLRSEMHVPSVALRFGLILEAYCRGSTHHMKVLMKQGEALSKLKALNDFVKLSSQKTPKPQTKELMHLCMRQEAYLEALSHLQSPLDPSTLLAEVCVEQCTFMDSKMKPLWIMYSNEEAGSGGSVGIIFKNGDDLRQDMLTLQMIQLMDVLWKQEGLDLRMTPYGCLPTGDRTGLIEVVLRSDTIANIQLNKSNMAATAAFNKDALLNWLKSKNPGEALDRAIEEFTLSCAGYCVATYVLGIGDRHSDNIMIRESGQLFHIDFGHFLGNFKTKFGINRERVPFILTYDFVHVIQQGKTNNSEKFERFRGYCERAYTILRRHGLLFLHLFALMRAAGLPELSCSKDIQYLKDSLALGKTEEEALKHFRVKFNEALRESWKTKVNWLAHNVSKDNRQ
T3 sequence (P27986 whole entry partner): as the sequence (P27986 whole entry partner) above
T4 sequence (P42336 whole entry): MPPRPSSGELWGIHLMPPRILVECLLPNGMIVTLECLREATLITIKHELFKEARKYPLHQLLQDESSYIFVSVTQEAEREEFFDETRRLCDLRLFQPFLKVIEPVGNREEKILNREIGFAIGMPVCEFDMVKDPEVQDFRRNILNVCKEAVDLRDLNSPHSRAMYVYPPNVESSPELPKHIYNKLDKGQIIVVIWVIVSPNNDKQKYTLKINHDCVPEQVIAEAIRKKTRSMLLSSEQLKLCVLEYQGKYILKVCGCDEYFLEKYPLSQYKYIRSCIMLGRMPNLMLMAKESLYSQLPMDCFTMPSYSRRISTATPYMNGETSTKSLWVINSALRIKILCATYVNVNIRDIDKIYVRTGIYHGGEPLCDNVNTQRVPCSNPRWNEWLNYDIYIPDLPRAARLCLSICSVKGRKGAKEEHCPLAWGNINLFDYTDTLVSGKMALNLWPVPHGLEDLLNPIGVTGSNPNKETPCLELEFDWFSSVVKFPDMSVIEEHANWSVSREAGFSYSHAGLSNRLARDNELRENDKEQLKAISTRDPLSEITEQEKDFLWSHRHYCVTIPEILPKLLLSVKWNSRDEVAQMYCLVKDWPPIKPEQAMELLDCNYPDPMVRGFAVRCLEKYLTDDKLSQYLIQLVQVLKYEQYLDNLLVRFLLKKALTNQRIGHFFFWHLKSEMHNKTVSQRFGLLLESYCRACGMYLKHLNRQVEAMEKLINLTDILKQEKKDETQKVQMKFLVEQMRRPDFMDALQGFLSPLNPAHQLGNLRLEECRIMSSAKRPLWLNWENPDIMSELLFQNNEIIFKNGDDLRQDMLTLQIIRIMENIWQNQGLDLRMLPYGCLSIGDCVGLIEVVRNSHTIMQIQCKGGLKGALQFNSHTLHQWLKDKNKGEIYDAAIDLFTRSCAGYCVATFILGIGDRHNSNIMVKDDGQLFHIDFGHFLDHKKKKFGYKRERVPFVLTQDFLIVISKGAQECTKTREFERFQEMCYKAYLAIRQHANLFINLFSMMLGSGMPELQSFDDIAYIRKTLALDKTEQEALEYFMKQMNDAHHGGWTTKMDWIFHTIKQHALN
T4 sequence (P27986 whole entry partner): as the sequence (P27986 whole entry partner) above

For the compound `CC(Nc1ncnc2[nH]cnc12)c1nc2ccccc2nc1-c1ccccc1` (stereo not drawn) [Compound Q1], on PI3Kγ, the half-maximal effective concentration (EC50) – broadly, the midpoint of the concentration-response curve – was 4620 nM. In addition, the inhibition at 10 µM came to 72% on PI3Kβ (p110β/p85α) (read-out: PI3Kβ % inhib), 100% on PI3Kδ (p110δ/p85α) and 89% at PI3Kα (p110α/p85α). Besides, the IC50 at PI3Kβ (p110β/p85α) is more than 10000 nM; at PI3Kδ (p110δ/p85α) it was 14 nM; at PI3Kα (p110α/p85α), 6920 nM. Also, the inhibition at 0.1 µM on PI3Kδ (p110δ/p85α) is 74%. In addition, the inhibition at 1 µM on PI3Kδ (p110δ/p85α) was determined as 85%; on PI3Kα (p110α/p85α), 18%.

For `CC(Nc1ncnc2[nH]cnc12)c1nc2ccccc2nc1-c1cc(F)cc(F)c1` (stereo not drawn) [Compound Q2, N-{1-[3-(3,5-difluorophenyl)quinoxalin-2-yl]ethyl}-9H-purin-6-amine], the EC50 on PI3Kγ is more than 20000 nM. Moreover, the inhibition at 10 µM on PI3Kβ (p110β/p85α) (read-out: PI3Kβ % inhib) was found to be 8%. The IC50 at PI3Kβ (p110β/p85α) was more than 10000 nM. For the same compound, at PI3Kδ (p110δ/p85α), the inhibition at 0.1 µM turned out to be 20%, the inhibition at 1 µM was found to be 82%, the inhibition at 10 µM came out at 100% and the IC50 amounted to 58 nM. Further, on PI3Kα (p110α/p85α), the inhibition at 10 µM turned out to be 47% and the IC50 is more than 10000 nM.

At PI3Kγ, `Cc1cccc(-c2nc3ccccc3nc2C(C)Nc2ncnc3[nH]cnc23)c1` (stereo not drawn) [Compound Q3] gave an EC50 of more than 20000 nM. For the same compound, the inhibition at 10 µM was 25% at PI3Kβ (p110β/p85α) (read-out: PI3Kβ % inhib), 100% at PI3Kδ (p110δ/p85α) and 65% on PI3Kα (p110α/p85α). Also, the IC50 was more than 10000 nM at PI3Kβ (p110β/p85α), 36 nM at PI3Kδ (p110δ/p85α) and more than 10000 nM on PI3Kα (p110α/p85α). The inhibition at 0.1 µM at PI3Kδ (p110δ/p85α) came out at 48%. Further, the inhibition at 1 µM at PI3Kδ (p110δ/p85α) stood at 86%.

On PI3Kγ, `Cc1cccc2nc(C(C)Nc3nc(N)nc4[nH]cnc34)c(-c3ccccc3)nc12` (stereo not drawn) [Compound Q4] showed an EC50 of 344 nM. Moreover, the inhibition at 10 µM at PI3Kβ (p110β/p85α) (read-out: PI3Kβ % inhib) came to 77%. Further, at PI3Kβ (p110β/p85α), the IC50 was 1130 nM. Moreover, at PI3Kδ (p110δ/p85α), the inhibition at 0.1 µM was 77%, the inhibition at 1 µM is 86%, the inhibition at 10 µM amounted to 100% and the IC50 came to 2 nM. Also, at PI3Kα (p110α/p85α), the inhibition at 1 µM is 18%, the inhibition at 10 µM worked out at 92% and the IC50 was 2590 nM.

On to `Cc1cccc2nc(C(C)Nc3nc(N)nc4[nH]cnc34)c(-c3ccc(F)cc3)nc12` (stereo not drawn) [Compound Q5], for which, at PI3Kγ, the EC50 was 628 nM. For the same compound, the inhibition at 1 µM amounted to 23% on PI3Kβ (p110β/p85α) (1 μM, read-out: PI3Kβ % inhib); 69% on PI3Kδ (p110δ/p85α); 41% on PI3Kα (p110α/p85α). Also, the inhibition at 10 µM at PI3Kβ (p110β/p85α) (read-out: PI3Kβ % inhib) worked out at 85%; on PI3Kδ (p110δ/p85α) it was 99%; on PI3Kα (p110α/p85α), 97%. In addition, the IC50 on PI3Kβ (p110β/p85α) worked out at 459 nM; on PI3Kδ (p110δ/p85α), 2 nM; on PI3Kα (p110α/p85α) it was 404 nM.

In turn, `CCC(Nc1ncnc2[nH]cnc12)c1nc2cccc(F)c2nc1-c1ccccc1` (stereo not drawn) [Compound Q9] came in with a 50% effective concentration (EC50) on PI3Kγ of more than 20000 nM. Further, the inhibition at 10 µM at PI3Kβ (p110β/p85α) (read-out: PI3Kβ % inhib) was 60%. For the same compound, the IC50 at PI3Kβ (p110β/p85α) is more than 10000 nM. Besides, on PI3Kδ (p110δ/p85α), the inhibition at 0.1 µM came to 72%, the inhibition at 1 µM was 86%, the inhibition at 10 µM amounted to 100% and the IC50 stood at 37 nM. On PI3Kα (p110α/p85α), the inhibition at 10 µM is 72% and the IC50 is more than 10000 nM.

`CCC(Nc1ncnc2[nH]cnc12)c1nc2ccccc2nc1-c1ccccc1` (stereo not drawn) [Compound Q12] gave an EC50 at PI3Kγ of more than 20000 nM. In addition, the inhibition at 10 µM on PI3Kβ (p110β/p85α) (read-out: PI3Kβ % inhib) stood at 75%; on PI3Kδ (p110δ/p85α) it was 100%; at PI3Kα (p110α/p85α), 77%. For the same compound, the IC50 is more than 10000 nM at PI3Kβ (p110β/p85α), 17 nM on PI3Kδ (p110δ/p85α) and more than 10000 nM on PI3Kα (p110α/p85α). The inhibition at 0.1 µM on PI3Kδ (p110δ/p85α) came to 71%. On PI3Kδ (p110δ/p85α), the inhibition at 1 µM is 83%.
